# Results reported in PMC8533299, “Synthesis, In Silico Study, and Anti-Cancer Activity of Thiosemicarbazone Derivatives” (Biomedicines, 2021).
# System: MCF-7 (Human breast cancer)
# Experiment: MTT test on MCF-7 cells
# Assay type: cell-based
# Details: MCF7, till 48 h
# Method: The in vitro anticancer activities of the synthesized compounds were conducted using different cancerous and non-cancerous cell lines viz B16-F0 (Mouse melanoma), mouse Ehrlich Ascites Carcinoma (EAC), MCF-7 (Human breast cancer), MCF-10A (Human breast epithelial cells), and NIH/3T3 (Mouse fibroblast cells). All cell lines were procured from the National Centre for Cell Science, Pune, India. The procured cells were cultured in a six-well culture plate with Dulbecco’s Modified Eagle’s Medium (DMEM) supplemented with 10% fetal bovine serum in a humid CO2 incubator with 5% carbon dioxide at 37 °C.
# The anti-cancer effect and cytotoxicity of both 3-MBTSc and 4-NBTSc compounds were evaluated against different cancerous (MCF-7, EAC, B16-F0 cells) and noncancerous cells (MCF-10A, NIH-3T3 cells) using MTT test. In brief, the stock solutions of both the tested compounds were prepared by dissolving 1 mg of each compound in 1 mL of DMSO separately. Then, four different concentrations (5, 10, 12, and 20 µg/mL) of both compounds were used during the test along with the negative control. Also, 10 μg/mL of doxorubicin (Dox) was used as the positive control during the experiment. Both untreated and treated cells were incubated for next 24 and 48 h. Then, all the steps during the whole experiment were carried out by our earlier reported procedure. Later, the absorbance values were measured by an ELISA reader (Biorad, Hercules, CA, USA) at 570 nm wavelength using secondary wavelength as a reference at 620 nm and the percentages of cell viability was calculated using the following formula [59, 60, 61]. Cell viability (%)= Mean absorbance of treated cells/Mean absorbance of untreated cells × 100
# Based on the cell viability data, the IC50 values of both compounds were calculated on different cancer cells by plotting their corresponding dose-responsive graphs.
# The obtained data were statistically analyzed. The descriptive analysis was done and the IC50 values were calculated by fitting the sigmoidal dose responsive graph using GraphPad Prism (GraphPad Software, Inc., La Jolla, CA, USA). […]
smiles,measurement,value
"COc1cccc2c1C(=O)c1c(O)c3c(c(O)c1C2=O)C[C@@](O)(C(=O)CO)C[C@@H]3O[C@H]1C[C@H](N)[C@H](O)[C@H](C)O1 [DOX, doxorubicin, reference compound]",IC50,3.162 ± 0.018 µg/mL
